# Measured values taken from patent publication US8048892B2, “Azaquinolone based compounds exhibiting prolyl hydroxylase inhibitory activity, compositions, and uses thereof” (Amgen Inc., priority 2006, dated 2011).
# Structures can show the parent of a compound that is named as a salt.
# Target: HIF PHD2 (Homo sapiens, UniProt Q9GZT9)
# Assay: PHD2 inhibition assay (TR-FRET, VCB-Eu detection of hydroxylated P564-HIF1α peptide)
# Assay type: biochemical
# Conditions: 2 nM PHD2, 100 nM P564-HIF1α peptide, 0.25 μM 2-oxoglutarate
# Method: Inhibition of HIF PHD2 activity was quantified utilizing the TR-FRET technology. HIF PHD2 catalyzes a hydroxyl modification on the proline residue of the P564-HIF1α peptide substrate (Biotin-DLEMLAPYIPMDDDFQL (SEQ ID NO: 7)) resulting in recognition and binding of the europylated Von Hippel-Lindau protein (pVHL), elongin B and elongin C heterotrimeric (VCB-Eu) complex.
# The PHD2 inhibition assay was executed by addition of freshly dissolved FeCl2 to 178.57 μM (100 μM final concentration) in PHD2 Reaction Buffer containing 30 mM MES, pH 6, 10 mM NaCl, 0.25% Brij-35, 0.01% BSA, and 1% DMSO. 28 μL of the iron solution and 2 μL of inhibitor compounds serially diluted in 100% DMSO (5% DMSO final) were added to black polypropylene 96-well microtiter plates. To that, 10 μL of 10 nM PHD2 (2 nM final) was added to all wells of the plate except for the 8 wells of column 12 (LO control), and allowed to incubate at room temperature on the shaker for one hour. Column 6 was the HI control containing PHD2 enzyme and 5% DMSO vehicle, but no inhibitor compound. To initiate the PHD2 enzymatic reaction, 10 μL of a solution containing 500 nM P564-HIF1α peptide (100 nM final), 10 mM ascorbic acid (2 mM final), and 1.25 μM 2-oxoglutarate (α-ketoglutarate; 0.25 μM final) in PHD2 Reaction Buffer was added to all wells of the plate and allowed to incubate on the shaker at room temperature for one hour.
# The reaction was terminated by addition of 25 μL TR-FRET Buffer (50 mM TRIS-HCl, pH 9, 100 mM NaCl, 0.05% BSA, and 0.5% Tween-20) containing 150 mM succinate (product inhibitor; 50 mM final), 75 nM streptavidin-APC (25 nM final), and 7.5 nM VCB-Eu (2.5 nM final). The TR-FRET detection reagents were placed on a shaker for 1 hour to reach binding equilibrium before reading on the Discovery platform (PerkinElmer). Europium is excited at 315 nm and phosphoresces at 615 nm with a large Stoke's shift. APC, in turn, emits at 655 nm upon excitation at 615 nm. The TR-FRET signal is measured as the ratio of the APC 655 nm signal divided by the internal europium reference 615 nm emission signal.
# The POC (percentage of control) was determined by comparing the signal from hydroxylated peptide substrate in the enzyme reaction containing inhibitor compound with that from PHD2 enzyme with DMSO vehicle alone (HI control), and no enzyme (LO control). POC was calculated using the formula: % control (POC)=(cpd−average LO)/(average HI−average LO)*100. Data (consisting of POC and inhibitor concentration in μM) was fitted to a 4-parameter equation (y=A+((B−A)/(1+((x/C)^D))), where A is the minimum y (POC) value, B is the maximum y (POC), C is the x (cpd concentration) at the point of inflection and D is the slope factor) using a Levenburg-Marquardt non-linear regression algorithm.
# HIF PHD2, sequence (Q9GZT9 whole entry): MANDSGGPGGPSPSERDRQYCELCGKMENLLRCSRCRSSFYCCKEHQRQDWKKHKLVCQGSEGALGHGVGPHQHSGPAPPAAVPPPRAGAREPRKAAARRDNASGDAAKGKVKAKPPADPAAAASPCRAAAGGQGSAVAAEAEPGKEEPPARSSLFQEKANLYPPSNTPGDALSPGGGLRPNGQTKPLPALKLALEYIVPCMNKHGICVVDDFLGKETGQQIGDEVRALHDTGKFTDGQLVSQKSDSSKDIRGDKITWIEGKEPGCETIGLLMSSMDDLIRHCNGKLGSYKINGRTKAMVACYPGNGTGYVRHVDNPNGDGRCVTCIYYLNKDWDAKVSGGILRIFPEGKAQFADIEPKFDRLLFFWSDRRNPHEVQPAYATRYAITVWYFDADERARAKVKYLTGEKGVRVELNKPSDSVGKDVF
row,IC50 [nM],SMILES
1,100 to 500,"Cn1c(=O)c(C(=O)NCC(=O)O)c(O)c2cc(-c3ccncc3)cnc21 [Example 43, 2-(4-Hydroxy-1-methyl-2-oxo-6-(pyridin-4-yl)-1,2-dihydro-1,8-naphthyridine-3-carboxamido)acetic acid]"
2,50 to 100,"Cn1c(=O)c(C(=O)NCC(=O)O)c(O)c2cc(-c3ccccc3C(F)(F)F)cnc21 [Example 42, N-((4-Hydroxy-1-methyl-2-oxo-6-(2-(trifluoromethyl)phenyl)-1,2-dihydro-1,8-naphthrydin-3-yl)carbonyl)glycine]"
3,50 to 100,"Cn1c(=O)c(C(=O)NCC(=O)O)c(O)c2c(C(F)(F)F)nccc21 [Example 132, 2-(4-Hydroxy-1-methyl-2-oxo-5-(trifluoromethyl)-1,2-dihydro-1,6-naphthyridine-3-carboxamido)acetic acid, Trifluoroacetic acid salt]"
4,50 to 100,"COc1ccc(-c2ccc3c(O)c(C(=O)NCC(=O)O)c(=O)n(C)c3n2)cc1 [Example 16, N-((4-Hydroxy-1-methyl-7-(4-(methyloxy)phenyl)-2-oxo-1,2-dihydro-1,8-naphthyridin-3-yl)carbonyl)glycine]"
5,< 50,"Cn1c(=O)c(C(=O)NCC(=O)O)c(O)c2c(Cl)nccc21 [Example 131, 2-(5-Chloro-4-hydroxy-1-methyl-2-oxo-1,2-dihydro-1,6-naphthyridine-3-carboxamido)acetic acid]"
6,< 50,"Cn1c(=O)c(C(=O)NCC(=O)O)c(O)c2cc(-c3ccc(N4CCOCC4)cc3)cnc21 [Example 63, N-((4-Hydroxy-1-methyl-6-(4-(4-morpholinyl)phenyl)-2-oxo-1,2-dihydro-1,8-naphthyridin-3-yl)carbonyl)glycine]"
7,50 to 100,"Cn1c(=O)c(C(=O)NCC(=O)O)c(O)c2cc(C3CC3)c(C(F)(F)F)nc21 [Example 93, 2-(6-cyclopropyl-4-hydroxy-1-methyl-2-oxo-7-(trifluoromethyl)-1,2-dihydro-1,8-naphthyridine-3-carboxamido)acetic acid]"
8,50 to 100,"Cn1c(=O)c(C(=O)NCC(=O)O)c(O)c2ccncc21 [Example 112, N-((4-Hydroxy-1-methyl-2-oxo-1,2-dihydro-1,7-naphthyridin-3-yl)carbonyl)glycine]"
9,< 50,"Cn1c(=O)c(C(=O)NCC(=O)O)c(O)c2c(NCC(=O)O)nccc21 [Example 129, 2-{4-Hydroxy-1-methyl-2-oxo-3-[(carboxymethyl)carbamoyl]-1,2-dihydro-1,6-naphthyridin-5-ylamino}acetic acid, Trifluoroacetic acid salt]"
10,50 to 100,"Cn1c(=O)c(C(=O)NCC(=O)O)c(O)c2cc(C3CCCCO3)cnc21 (single isomer, unassigned) [Example 70, (R)-2-(4-Hydroxy-1-methyl-2-oxo-6-(tetrahydro-2 H-pyran-2-yl)-1,2-dihydro-1,8-naphthyridine-3-carboxamido)acetic acid or (S)-2-(4-Hydroxy-1-methyl-2-oxo-6-(tetrahydro-2 H-pyran-2-yl)-1,2-dihydro-1,8-naphthyridine-3-carboxamido)acetic acid]"
11,< 50,"Cn1c(=O)c(C(=O)NCC(=O)O)c(O)c2cc(C3=CCCCC3)cnc21 [Example 67, 2-(6-Cyclohexenyl-4-hydroxy-1-methyl-2-oxo-1,2-dihydro-1,8-naphthyridine-3-carboxamido)acetic acid]"
12,100 to 500,"CN(C)c1ccc(-c2cnc3c(c2)c(O)c(C(=O)NCC(=O)O)c(=O)n3C)cc1 [Example 49, N-((6-(4-(Dimethylamino)phenyl)-4-hydroxy-1-methyl-2-oxo-1,2-dihydro-1,8-naphthyridin-3-yl)carbonyl)glycine]"
13,50 to 100,"Cn1c(=O)c(C(=O)NCC(=O)O)c(O)c2cc(N3CCCCC3)ncc21 [Example 121, 2-(4-Hydroxy-1-methyl-2-oxo-6-(piperidin-1-yl)-1,2-dihydro-1,7-naphthyridine-3-carboxamido)acetic acid, Trifluoroacetic acid salt]"
14,50 to 100,"COc1ncc(-c2cnc3c(c2)c(O)c(C(=O)NCC(=O)O)c(=O)n3C)cn1 [Example 64, 2-(4-Hydroxy-6-(2-methoxypyrimidin-5-yl)-1-methyl-2-oxo-1,2-dihydro-1,8-naphthyridine-3-carboxamido)acetic acid]"
15,< 50,"Cn1c(=O)c(C(=O)NCC(=O)O)c(O)c2cc(C3CCOCC3)cnc21 [Example 34, 2-(4-Hydroxy-1-methyl-2-oxo-6-(tetrahydro-2 H-pyran-4-yl)-1,2-dihydro-1,8-naphthyridine-3-carboxamido)acetic acid]"
16,< 50,"CC(C)c1cc2c(O)c(C(=O)NCC(=O)O)c(=O)n(C)c2cn1 [Example 113, N-((4-Hydroxy-1-methyl-6-(1-methylethyl)-2-oxo-1,2-dihydro-1,7-naphthyridin-3-yl)carbonyl)glycine]"
17,50 to 100,"CN(C)c1ccccc1-c1cnc2c(c1)c(O)c(C(=O)NCC(=O)O)c(=O)n2C [Example 33, 2-(6-(2-(Dimethylamino)phenyl)-4-hydroxy-1-methyl-2-oxo-1,2-dihydro-1,8-naphthyridine-3-carboxamido)acetic acid]"
18,50 to 100,"COc1cncc(-c2cnc3c(c2)c(O)c(C(=O)NCC(=O)O)c(=O)n3C)c1 [Example 55, N-((4-Hydroxy-1-methyl-6-(5-(methyloxy)-3-pyridinyl)-2-oxo-1,2-dihydro-1,8-naphthyridin-3-yl)carbonyl)glycine]"
19,50 to 100,"Cn1c(=O)c(C(=O)NCC(=O)O)c(O)c2cccnc21 [Example 76, 2-(4-Hydroxy-1-methyl-2-oxo-1,2-dihydro-1,8-naphthyridine-3-carboxamido)acetic acid]"
20,100 to 500,"Cn1c(=O)c(C(=O)NCC(=O)O)c(O)c2ccc(C3CCCCC3)nc21 [Example 18, 2-(7-Cyclohexyl-4-hydroxy-1-methyl-2-oxo-1,2-dihydro-1,8-naphthyridine-3-carboxamido)acetic acid]"
21,< 50,"Cn1c(=O)c(C(=O)NCC(=O)O)c(O)c2cc(-c3ccccc3N3CCOCC3)cnc21 [Example 57, N-((4-Hydroxy-1-methyl-6-(2-(4-morpholinyl)phenyl)-2-oxo-1,2-dihydro-1,8-naphthyridin-3-yl)carbonyl)glycine]"
22,< 50,"Cn1c(=O)c(C(=O)NCC(=O)O)c(O)c2cc(C3=CCCCC3)c(C(F)(F)F)nc21 [Example 96, 2-(6-Cyclohexenyl-4-hydroxy-1-methyl-2-oxo-7-(trifluoromethyl)-1,2-dihydro-1,8-naphthyridine-3-carboxamido)acetic acid]"
23,< 50,"Cn1c(=O)c(C(=O)NCC(=O)O)c(O)c2cc(-c3cncnc3)cnc21 [Example 61, N-((4-Hydroxy-1-methyl-2-oxo-6-(5-pyrimidinyl)-1,2-dihydro-1,8-naphthyridin-3-yl)carbonyl)glycine]"
24,50 to 100,"CCCCc1cnc2c(c1)c(O)c(C(=O)NCC(=O)O)c(=O)n2C [Example 72, 2-(6-Butyl-4-hydroxy-1-methyl-2-oxo-1,2-dihydro-1,8-naphthyridine-3-carboxamido)acetic acid]"
25,100 to 500,"CC(C)Oc1ccc(-c2cnc3c(c2)c(O)c(C(=O)NCC(=O)O)c(=O)n3C)cc1 [Example 37, N-((4-Hydroxy-1-methyl-6-(4-((1-methylethyl)oxy)phenyl)-2-oxo-1,2-dihydro-1,8-naphthyridin-3-yl)carbonyl)glycine]"
26,50 to 100,"Cn1c(=O)c(C(=O)NCC(=O)O)c(O)c2cc(C3=CCOCC3)cnc21 [Example 26, 2-(6-(3,6-Dihydro-2 H-pyran-4-yl)-4-hydroxy-1-methyl-2-oxo-1,2-dihydro-1,8-naphthyridine-3-carboxamido)acetic acid]"

row,SMILES,IC50 [nM]
1,"Cn1c(=O)c(C(=O)NCC(=O)O)c(O)c2cc(C3CCOC3)c(C(F)(F)F)nc21 (single isomer, unassigned) [Example 104, (R)-2-(4-Hydroxy-1-methyl-2-oxo-6-(tetrahydrofuran-3-yl)-7-(trifluoromethyl)-1,2-dihydro-1,8-naphthyridine-3-carboxamido)acetic acid or (S)-2-(4-Hydroxy-1-methyl-2-oxo-6-(tetrahydrofuran-3-yl)-7-(trifluoromethyl)-1,2-dihydro-1,8-naphthyridine-3-carboxamido)acetic acid]",50 to 100
